The values below come from US20250082760A1 (priority 2020, published 2025).

One series concerns righting reflex in mice. Description: mouse righting reflex test (sedative and hypnotic effects). Type of series: in vivo, Kunming mice. The following applies: intraperitoneal, Pro 25 mg/kg, n = 7. How it is done: Experimental animals, SPF Kunming mice, male, 20-30 g, Laboratory Animal Center of Lanzhou University (certificate number: SCXK (Gan) 2018-0002), reared in separate cages, temperature, 22±1° C., humidity, 50%, automatic in the light-controlled 12 h/12 h light-dark cycle (light-on time 8:00 h, light-off time 20:00 h, light intensity ≈100 lux) environment, free food and activities, adapted to the experimental environment for 5 days.
(§1) Statistical analysis, the experimental data were analyzed by SPSS 19.0 statistical software, and all data were expressed as Means±SEM.

The next series relates to reserpine-treated mice. Description: mouse sugar water preference test (reserpine depression model). As to conditions: after Res 6 mg/kg i.p., CLI 50, Pro 25, A1P1 24 and 25, compound 5 56 mg/kg i.p.; for Sugar water preference (sugar water drinking amount/total drinking amount): Means±SEM, Res + DMSO 0.642 ± 0.036, DMSO 0.901 ± 0.026. Type of series: in vivo, Kunming mice. The procedure: Experimental drug, clomipramine (CLI), sigma company, batch number: C7291, 10 mg/ml (10% DMSO); reserpine (Res), sigma company, batch number: 83580, 1 mg/ml (10% DMSO);
SPF adult male Kunming mice, 20-30 g, Laboratory Animal Center of Lanzhou University, animal certificate number: SCXK (Gan) 2018-0002, reared in separate cages, temperature 22±1° C., humidity […], 12 h/12 h light and dark cycle controlled by dynamic light (light-on time 8:000 h, light-off time 20:000 h, light intensity≈100 lux), animals could eat and move freely.
as §1

Series [1] concerns reserpine depression model mice. The series is described as follows: forced swimming test in mice (reserpine depression model). Type of series: in vivo, Kunming mice. As to conditions: after Res 6 mg/kg i.p., CLI 50, Pro 25, A1P1 24 and 25, compound 5 56 mg/kg i.p.; for Forced swimming immobility time: 5 min test, Means±SEM, Res + DMSO 169.82 ± 11.22, DMSO 106.72 ± 16.49. The procedure:
Experimental Drug, Animal, Grouping and Administration are Same as Sugar Water Preference Experiment Method.
Preparation of depression animal models, acute intraperitoneal injection of 6 mg/kg Res can cause a continuous decrease in monoamine neurotransmitters in the brain for 1 week, and depression-like behaviors last for 72 hours, it is often utilized for the preparation of depression models (Huang et al., 2004).
Forced swimming experiment process, the forced swimming experiment is an experiment in which animals are placed in an unavoidable stressful environment to detect the despair state of animal behavior (Porsolt et al., 1978). Male Kunming mice were selected and randomly divided into groups. Conduct in a quiet and enclosed behavioral observation room, with red lights for indoor lighting (25 lux). The experiment is divided into two stages, the first stage: adaptation experiment, 1 day before the test, 9:00-12:00 h, put the animals into the forced swimming test equipment (plexiglass drum: diameter 20 cm, height 25 cm, water depth 12 cm, water temperature 21-25° C., the upper side CCD camera is connected to the computer to record) after 15 minutes of adaptation, take it out, dry the hair with a towel and put it back into the cage. The second stage: testing experiment, animals in each group were put into the forced swimming bucket for 5 minutes at the same time period, and the behavioral activities during the testing period were tracked and recorded by digital cameras and then analyzed. Immobility time: The animal floats on the water surface, with no movement of the limbs or slight movement of the hind limbs to keep the head above the water surface. Evaluate depression like behavior by detecting the despair state of animals based on their immobility time.
as §1

Series [2] deals with hot plate pain threshold in mice. Description: hot plate method, compound 1, intragastric administration. Type of series: in vivo. The procedure: All the mice participating in the experiment were subjected to hot plate pain threshold detection before the experiment, and qualified mice with pain threshold of 10-40 s were screened.
Accurately weigh an appropriate amount of compound 1, dissolve it in distilled water and prepare a mother liquor of 100 mg/ml, then dilute to 1.25 mg/ml (25 mg/kg), 2.5 mg/ml (50 mg/kg) with double distilled water respectively; accurately weigh an appropriate amount of the positive control drug gabapentin, dissolve in distilled water and prepare a 100 mg/ml mother solution, and then dilute to 10 mg/ml (200 mg/kg) with double distilled water. All medicines are prepared and utilized as needed.
40 only qualified mice were divided into 4 groups, half male and half female in each group. The first group is the blank group, no administration; the second group is the positive control (gabapentin) 25 mg/kg group; the third group is the test drug 25 mg/kg group; the fourth group is the test drug 50 mg/kg group 4. All were administered by gavage.
The mice were placed in a hot plate apparatus at a temperature of 55±0.5° C., and the pain thresholds of the mice were measured and recorded before administration and 60 min after administration.

Series [3] relates to lipopolysaccharide-induced depression mouse model. Description: lipopolysaccharide-induced depression mouse model (open field, forced swimming test, body weight). The series is classed as in vivo, ICR mice. How it is done: Positive drug: fluoxetine hydrochloride capsule (specification 20 mg), take the content in a mortar, add 40 ml of 0.5% CMC-Na solution while grinding, to a suspended state, set EP tube for use; test drug (compound 5): dissolve into 5, 10, and 20 mg/ml solutions in distilled water, respectively, and put them in EP tubes for later use; modeling drug (LPS): take a frozen lipopolysaccharide PBS solution (1.2 mg: 1.2 ml), and after thawing Use a pipette to take 1 ml into the EP tube, replace with a new pipette tip and pipette 9 ml of normal saline into the EP tube, shake well for use.
Except for the first group (blank control group), other groups of animals were intraperitoneally injected with LPS 2 h before the last administration on the 7th day to the mice in the model group, the positive drug group, and the low, middle and high dose groups of the test drug.
The first group was the blank control group, which was given 0.5% CMC-Na 0.2 ml/20 g by gavage; the second group was the model group, which was given 0.5% CMC-Na by gavage; the third group was the positive drug group, which was given by gavage Flunarizine hydrochloride (sibilin) 1 mg/kg; the fourth group was the low-dose group of the test drug, which was given 100 mg/kg of compound 5 by gavage; the fifth group was the medium-dose group of the test drug, which was given 200 mg/kg by gavage. kg of compound 5; the sixth group was the test drug high-dose group, and 400 mg/kg of compound 5 was administered by gavage. The drug was administered for one week, and the second to sixth groups were intraperitoneally injected with 1 mg/kg (0.2 ml/20 g) of LPS on the seventh day to establish a model.
On the 7th day, before the last administration and modeling, the effect of the drug on the spontaneous activity of the mice should be investigated, and it is excluded that the drug increases the spontaneous activity of the mice and interferes with the immobility time in the forced swimming experiment. The total migration distance of each mouse in the open field (50×50×50 cm) within 5 min was calculated using the open field experimental instrument and related computer software. Before the data collection, each mouse was given 5 min to familiarize with the open field environment, after each mouse was tested, its excrement was removed and the odor was eliminated with an alcohol spray bottle.
Because the air temperature is low, it is appropriate to control the water temperature by adding hot water to the cylinder.
In the spontaneous activity, the behavioral index selects the total migration distance of mice in the open field within 5 minutes,
by tracking the movement trajectory of mice through monitoring devices, and using computer software, the total distance of movement can be directly obtained; in the FST experiment, the mice were placed in a into a transparent cylinder filled with warm water (about 25° C.) for 6 minutes, the mice will experience struggling, swimming and floating behaviors, the time when the mice stop struggling to float on the water surface is identified as a state of despair caused by depression, by using monitoring equipment and computer software to statistically analyze the state of mice after 4 minutes, the total “Immobility time” can be directly obtained.

In series [4] the test system is nitroglycerin-induced migraine mouse model. Description: nitroglycerin-induced migraine mouse model (hot plate, head scratching, body weight). The series is classed as in vivo, ICR mice. How it is done:
48 ICR mice weigt 18-22 g, half male and half female; purchased from Qinglongshan Animal Breeding Farm, Jiangning District, Nanjing City, certificate: SCXK (Su) 2017-0001; rearing conditions: room temperature 18-20° C., same sex rearing in separate cages, 12 hours of light, regular ventilation, conventional full-price solid feed feeding, bedding changed every two days; 48 mice were randomly divided into 6 groups (blank control group, model group, positive drug group, low-dose group of test drug, medium-dose group of test drug, high-dose group of test drug), 8 animals (4♀4) in each group, marked No. 1-8 with picric acid respectively.
Solvent: 0.5% CMC-Na aqueous solution; positive drug: flunarizine hydrochloride (sibelin) capsules (specification 5 mg), take the contents in a mortar, add 100 ml of 0.5% CMC-Na solution while grinding, placed in EP tubes for standby; Test drug (compound 5): dissolve into 5, 10, 20 mg/ml solutions with distilled water respectively, and placed in EP tubes for standby; Modeling drug (nitroglycerin): take 2 nitroglycerin tablets (specification 5 mg), crushed into powder, placed in EP tubes, added 500 μl of propylene glycol with a pipette and shaken well, standing still for 5 minutes, added 9.5 ml of normal saline, shaken well and standing still overnight, take the supernatant (containing nitroglycerin) 1 mg/ml) for use.
Except for the first group (blank control group), animals in other groups were subcutaneously injected with 10 mg/kg (0.2 ml/20 g) of nitroglycerin back-up solution 1 h after each administration (modeling once every other day on the 1st, 3rd, and 5th days).
The first group was the blank control group, which was given 0.5% CMC-Na 0.2 ml/20 g by gavage; the second group was the model group, which was given 0.5% CMC-Na by gavage; the third group was the positive drug group, which was given by gavage Flunarizine hydrochloride (sibilin) 1 mg/kg; the fourth group was the low-dose group of test drug, which was given 100 mg/kg of compound 5 by gavage; the fifth group was the medium-dose group of test drug, which was given 200 mg/kg of compound 5 by gavage; the sixth group was the high-dose group of test drug, which was given 400 mg/kg of compound 5 by gavage. Dosing every other day on days 1, 3, and 5.
In behavioral studies, mice scratching their heads for more than 5 times or scratching their faces with forelimbs for more than 5 times were identified as migraine-related behaviors caused by modeling, with a record of scratching their heads once; in the hot plate method, mice lifted their hind limbs and licked their hind feet as the observation indicator, record the time immediately.

Where [5] appears, read: compound 5 56 mg/kg, A1P1 24 and 25 mg/kg, Dia 5 mg/kg.

SMILES strings stand for the structures. Counter-ions that a name gives are not always drawn.

Turning to `CC(C)c1cccc(C(C)C)c1O` [Pro, Propofol, reference compound], the “Duration (disappearance to recovery of the righting reflex)” value in the series on righting reflex in mice came out at 150.97 s. Also, the “Observation of activity and other phenomena” value with righting reflex in mice (setting [5]) was “significantly reduced”. In the series on reserpine-treated mice, the “change of preference for sugar water compared with the Res+DMSO group” value is listed as “rose significantly” and the “Sugar water preference (sugar water drinking amount/total drinking amount)” value was found to be 0.789 ± 0.043. In series [1], the “change of forced swimming immobility time compared with the Res+DMSO group” value is “slightly shortened” and the “Forced swimming immobility time” value is 145.01 ± 21.21 s.

As for `CN(C)CCCN1c2ccccc2CCc2ccc(Cl)cc21` [CLI, clomipramine, reference compound], in the series with reserpine-treated mice, the “change of preference for sugar water compared with the Res+DMSO group” value is listed as “significantly increased” and the “Sugar water preference (sugar water drinking amount/total drinking amount)” value is recorded as 0.812 ± 0.025. Further, in series [1], the “change of forced swimming immobility time compared with the Res+DMSO group” value was “significantly shortened” and the “Forced swimming immobility time” value is recorded as 80.66 ± 23.68 s.

On to `NCC1(CC(=O)O)CCCCC1` [Gabapentin, gabapentin, reference compound], for which the “Pain response time Before administration” value in series [2] (25 mg/kg gavage group, baseline, n 10, X ± SD) is reported as 16.6 ± 5.2 s. Besides, the “Pain response time After administration” value in series [2] (25 mg/kg gavage, 60 min after administration, X ± SD) was 33.5 ± 15.0 s. In series [2] (25 mg/kg gavage, 60 min after administration, blank group 3.9 ± 6.6), the “Pain response time extension rate” value stood at 113.4 ± 99.1 %.

For the compound `CN1C(=O)CN=C(c2ccccc2)c2cc(Cl)ccc21` [Dia, Diazepam, reference compound], in the series with righting reflex in mice (setting [5]), the “Disappearance time (latency of disappearance of the righting reflex)” value is reported as “did not disappear”; the “Observation of activity and other phenomena” value is “significantly reduced”.

`CNCCC(Oc1ccc(C(F)(F)F)cc1)c1ccccc1` (stereo not shown) [fluoxetine hydrochloride, reference compound]: the “effect on body weight of mice” value in series [3] (compound 5 100, 200, 400 mg/kg and positive drug, gavage for one week) is reported as “no significant effect”. In addition, in series [3] (compound 5 100, 200, 400 mg/kg and positive drug, gavage for one week, no statistical difference found), the “alleviation of depressive behavior caused by LPS” value was “certain alleviation effect”. In series [3] (reference blank group, day 7 before last administration, all dose groups, p>0.05), the “spontaneous activity: total migration distance in open field within 5 minutes” value was “no significant effect”. Besides, in series [3] (reference model group, compound 5 100, 200, 400 mg/kg and positive drug, gavage for one week, 4 h after LPS), the FST immobility time result is on record as “not significantly different (p>0.05)”.

For `Fc1ccc(C(c2ccc(F)cc2)N2CCN(C/C=C/c3ccccc3)CC2)cc1` [flunarizine hydrochloride, reference compound], the “weight gain of mice” value in series [4] (reference blank group, compound 5 100, 200, 400 mg/kg, flunarizine hydrochloride 1 mg/kg, gavage, p>0.05) is reported as “no significant difference”. In series [4] (reference model group, flunarizine hydrochloride 1 mg/kg gavage, 45 min after modeling, day 5, p<0.05), the “hind feet licking time (hot plate)” value was “significant difference”. Moreover, the “total number of head scratching times” value in series [4] (reference model group, flunarizine hydrochloride 1 mg/kg gavage, day 5) is recorded as “extremely significant (p<0.01)”.
